The values below are quoted from earlier work in PMC6270976, “Pharmacokinetic Study in Mice of Galphimine-A, an Anxiolytic Compound from Galphimia glauca” (Molecules, 2014).

On the set-up of series [1]: method as in PMID 18452416. The settings on record: humans; cited from earlier work.
Details of series [2]: method as in PMID 14758039. The settings on record: cited from earlier work.
For series [3] the following is noted: cited from earlier work.

Entries after “also recorded” stand apart in the source; their conditions may differ. Like-named read-outs stand apart in the source and are kept apart here.

Turning to `CC1(C)[C@@H](O)CC[C@]2(C)[C@H]3C(=O)C=C4[C@@H]5C[C@@](C)(C(=O)O)CC[C@]5(C)CC[C@@]4(C)[C@]3(C)CC[C@@H]12` [glycyrrhetinic acid], the k10 in series [1] is 0.0012 min⁻¹. In series [2] (mice, 100 mg/kg orally, one-compartment model), the “k10 (elimination rate constant)” value is 0.0006 min⁻¹. In addition, the “AUC0→∞” value in series [2] (oral administration in mice) is recorded as 2,454 µg·min·mL^−1. Turning to `COC(=O)[C@@]12CC[C@@]3(C)[C@@H]4C=CC(=O)OC[C@]4([C@@H](C)O)[C@@H](OC(C)=O)[C@@H](O)[C@@H]3[C@@]1(C)CC[C@@]1(C)CC=C(C)C[C@]12O` [G–E, galphimine-E], the Anxiolytic activity result in series [3] is “inactive”.

`COC(=O)[C@@]12CC[C@@]3(C)[C@@H]4C=CC(=O)OC[C@]4([C@@H](C)O)C[C@@H](O)[C@@H]3[C@@]1(C)CC[C@@]1(C)CC=C(C)C[C@]12O` [G–B, galphimine-B]: the Anxiolytic activity entry in series [3] (among the galphimines) is recorded as “most active; also recorded: highest anxiolytic activity”.
